In ChEMBL document CHEMBL3352564, “Synthesis, Structure, and SAR of Tetrahydropyran-Based LpxC Inhibitors” (ACS Med Chem Lett, 2014):
Converted amounts (≈) assume the structure as drawn.

How the values were obtained:
[1] = test system: Escherichia coli; assay: Antimicrobial activity against Escherichia coli ARC523 W3110 harboring mutant by CLSI dilution method; type: functional
[2] = test system: Pseudomonas aeruginosa; assay: Antimicrobial activity against Pseudomonas aeruginosa PAO1 ARC545 by CLSI dilution method; type: functional
[3] = molecular target: Collagenase 3 (Homo sapiens) (UniProt P45452); assay: Inhibition of MMP13 (unknown origin) at 30 uM
[4] = molecular target: 72 kDa type IV collagenase (Homo sapiens) (UniProt P08253); assay: Inhibition of MMP2 (unknown origin) at 30 uM
Sequence of 72 kDa type IV collagenase (Homo sapiens) (P08253 110-660 limits assumed): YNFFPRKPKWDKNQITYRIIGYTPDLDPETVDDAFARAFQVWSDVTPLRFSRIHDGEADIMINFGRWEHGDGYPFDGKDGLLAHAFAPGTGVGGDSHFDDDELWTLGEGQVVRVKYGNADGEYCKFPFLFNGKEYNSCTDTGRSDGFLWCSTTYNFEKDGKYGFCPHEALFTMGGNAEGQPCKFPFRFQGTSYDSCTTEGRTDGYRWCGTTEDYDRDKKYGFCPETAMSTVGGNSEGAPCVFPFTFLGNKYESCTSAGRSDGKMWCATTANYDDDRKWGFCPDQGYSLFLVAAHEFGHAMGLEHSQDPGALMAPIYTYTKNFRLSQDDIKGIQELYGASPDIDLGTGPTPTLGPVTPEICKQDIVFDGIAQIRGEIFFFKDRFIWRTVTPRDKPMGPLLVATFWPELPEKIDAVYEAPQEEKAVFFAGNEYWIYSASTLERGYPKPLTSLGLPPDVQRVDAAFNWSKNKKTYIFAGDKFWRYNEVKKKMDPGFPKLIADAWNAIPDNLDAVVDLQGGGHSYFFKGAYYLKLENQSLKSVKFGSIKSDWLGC

[5] = test system: Escherichia coli; assay: Antimicrobial activity against TolC-deficient Escherichia coli ARC524 W3110 harboring mutant by CLSI dilution method; type: functional
[6] = test system: Pseudomonas aeruginosa; assay: Antimicrobial activity against MexABCDXY-deficient Pseudomonas aeruginosa PAO1 ARC546 by CLSI dilution method; type: functional
[7] = molecular target: T1, UDP-3-O-acyl-N-acetylglucosamine deacetylase (Pseudomonas aeruginosa (strain ATCC 15692 / PAO1 / 1C / PRS 101 / LMG12228), UniProt P47205); assay: Inhibition of Pseudomonas aeruginosa LpxC using UDP-3-O-(R-3-hydroxydecanoyl)-N-acetylglucosamine as substrate preincubated for 20 mins before substrate addition by LC/MS/MS analysis
T1 sequence (P47205 whole entry): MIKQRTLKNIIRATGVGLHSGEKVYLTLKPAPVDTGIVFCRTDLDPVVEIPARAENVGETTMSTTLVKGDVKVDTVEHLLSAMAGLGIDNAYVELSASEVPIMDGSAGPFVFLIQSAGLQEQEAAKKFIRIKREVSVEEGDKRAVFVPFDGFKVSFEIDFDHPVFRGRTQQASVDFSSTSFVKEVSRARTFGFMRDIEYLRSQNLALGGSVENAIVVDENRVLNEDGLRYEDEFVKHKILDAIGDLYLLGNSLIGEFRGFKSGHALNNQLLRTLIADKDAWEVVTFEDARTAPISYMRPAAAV

[8] = molecular target: Collagenase 3 (Homo sapiens) (UniProt P45452); assay: Inhibition of MMP13 (unknown origin) at 10 uM
[9] = molecular target: 72 kDa type IV collagenase (Homo sapiens) (UniProt P08253); assay: Inhibition of MMP2 (unknown origin) at 10 uM
[10] = molecular target: Collagenase 3 (Homo sapiens) (UniProt P45452); assay: Inhibition of MMP13 (unknown origin) at 15 uM

| SMILES | MIC [1] [µM] | MIC [2] [µM] | inhibition [3] [%] | inhibition [4] [%] | MIC [5] [µM] | MIC [6] [µM] | IC50 [7] [nM] | inhibition [8] [%] | inhibition [9] [%] | inhibition [10] [%] |
| --- | --- | --- | --- | --- | --- | --- | --- | --- | --- | --- |
| C[C@@H](O)[C@H](NC(=O)c1ccc(C#Cc2ccc(CN3CCOCC3)cc2)cc1)C(=O)NO | < 0.2 | 1.56 (≈ 0.682 µg/mL) | 30 | 12 | < 0.2 | < 0.2 |  |  |  |  |
| O=C(NO)C1(COc2ccc(-c3ccccc3)cc2)CCOCC1 | > 200 | 100 (≈ 32.7 µg/mL) |  |  | > 200 | 6.25 (≈ 2.05 µg/mL) | 8.7 |  |  |  |
| O=C(NO)C1(COc2ccc(C#Cc3ccc(CN4CCN(CCn5ccnc5)CC4)cc3)cc2)CCOCC1 | 6.25 (≈ 3.4 µg/mL) | 50 (≈ 27.2 µg/mL) |  |  | 0.78 (≈ 0.424 µg/mL) | 0.78 (≈ 0.424 µg/mL) | 2 | 80 | 93 |  |
| C[C@@H]1CN(Cc2ccc(C#Cc3ccc(OCC4(C(=O)NO)CCOCC4)cc3)cc2)C[C@H](C)O1 | 12.5 (≈ 5.98 µg/mL) | > 200 |  |  | 0.39 (≈ 0.187 µg/mL) | 3.13 (≈ 1.5 µg/mL) | 2.6 | 75 | 92 |  |
| COC1CCC(COc2ccc(C#Cc3ccc(CN4CCOCC4)cc3)cc2)(C(=O)NO)CC1 (stereo not given) | 100 (≈ 47.9 µg/mL) | > 200 |  |  | 6.25 (≈ 2.99 µg/mL) | 3.13 (≈ 1.5 µg/mL) | 8.6 |  |  |  |
| COc1ccc(CNCc2ccc(C#Cc3ccc(OCC4(C(=O)NO)CCOCC4)cc3)cc2)cc1 | 50 (≈ 25 µg/mL) | 100 (≈ 50.1 µg/mL) |  |  | 12.5 (≈ 6.26 µg/mL) | 6.25 (≈ 3.13 µg/mL) | 10 |  |  |  |
| O=C(NO)C1(COc2ccc(C#Cc3ccc(CN4CCOCC4)cc3)cc2)CCOCC1 | 12.5 (≈ 5.63 µg/mL) | 100 (≈ 45.1 µg/mL) |  |  | 1.56 (≈ 0.703 µg/mL) | 1.56 (≈ 0.703 µg/mL) | 4.4 | 82 | 94 |  |
| CN1CCN(Cc2ccc(C#Cc3ccc(OCC4(C(=O)NO)CCOCC4)cc3)cc2)CC1 | 50 (≈ 23.2 µg/mL) | 100 (≈ 46.4 µg/mL) |  |  | 3.13 (≈ 1.45 µg/mL) | 1.56 (≈ 0.723 µg/mL) | 6.1 |  |  |  |
| CC(=O)N1CCN(Cc2ccc(C#Cc3ccc(OCC4(C(=O)NO)CCOCC4)cc3)cc2)CC1 | 25 (≈ 12.3 µg/mL) | 50 (≈ 24.6 µg/mL) |  |  | 0.39 (≈ 0.192 µg/mL) | 0.78 (≈ 0.383 µg/mL) | 3 |  |  |  |
| O=C(NO)C1(CSc2ccc(C#Cc3ccc(CN4CCOCC4)cc3)cc2)CCOCC1 | 3.13 (≈ 1.46 µg/mL) | 25 (≈ 11.7 µg/mL) |  |  | < 0.2 | 0.39 (≈ 0.182 µg/mL) | 0.2 |  |  |  |
| O=C(NO)C1(CSc2ccc(Oc3ccc(Cl)cc3)cc2)CCOCC1 | > 200 | 50 (≈ 19.7 µg/mL) |  |  | 50 (≈ 19.7 µg/mL) | 6.25 (≈ 2.46 µg/mL) | 7.4 |  |  | 99 |
| CC(C)(O)C#CC#Cc1ccc(OCC2(C(=O)NO)CCOCC2)cc1 | 200 (≈ 71.5 µg/mL) | > 200 |  |  | 6.25 (≈ 2.23 µg/mL) | 25 (≈ 8.94 µg/mL) | 139 |  |  |  |
| O=C(CN1CCN(Cc2ccc(C#Cc3ccc(OCC4(C(=O)NO)CCOCC4)cc3)cc2)CC1)N1CCOCC1 | > 200 | > 200 |  |  | 25 (≈ 14.4 µg/mL) | 12.5 (≈ 7.21 µg/mL) | 1.7 |  |  |  |
| O=C(NO)C1(COc2ccc(Oc3ccccc3)cc2)CCOCC1 | > 200 | > 200 |  |  | > 200 | 25 (≈ 8.58 µg/mL) | 92 |  |  |  |
| O=C(NO)C1(COc2ccc(C#CC#Cc3ccccc3)cc2)CCOCC1 | 200 (≈ 75.1 µg/mL) | > 200 |  |  | 50 (≈ 18.8 µg/mL) | > 200 | 33 |  |  |  |
| CN(C)CC1CN(Cc2ccc(C#Cc3ccc(OCC4(C(=O)NO)CCOCC4)cc3)cc2)CCO1 (stereo not given) | 200 (≈ 102 µg/mL) | 100 (≈ 50.8 µg/mL) |  |  | 6.25 (≈ 3.17 µg/mL) | 3.13 (≈ 1.59 µg/mL) | 5.8 |  |  |  |
| O=C(NO)C1(C[S+]([O-])c2ccc(C#Cc3ccc(CN4CCOCC4)cc3)cc2)CCOCC1 (racemic) | 1.56 (≈ 0.753 µg/mL) | 25 (≈ 12.1 µg/mL) |  |  | < 0.2 | < 0.2 | 3.1 | 96 | 97 |  |
| CC(C)N1CCN(Cc2ccc(C#Cc3ccc(OCC4(C(=O)NO)CCOCC4)cc3)cc2)CC1 | 100 (≈ 49.2 µg/mL) | 100 (≈ 49.2 µg/mL) |  |  | 12.5 (≈ 6.15 µg/mL) | 3.13 (≈ 1.54 µg/mL) | 7.5 |  |  |  |
| O=C(NO)C1(COc2ccc(C#Cc3ccc(CN4CCN(CCN5CCOCC5)CC4)cc3)cc2)CCOCC1 | 25 (≈ 14.1 µg/mL) | 50 (≈ 28.1 µg/mL) |  |  | 1.56 (≈ 0.878 µg/mL) | 0.78 (≈ 0.439 µg/mL) | 2.7 |  |  |  |
| O=C(NO)C1(COc2ccc(OCc3ccccc3)cc2)CCOCC1 | > 200 | 200 (≈ 71.5 µg/mL) |  |  | 200 (≈ 71.5 µg/mL) | 6.25 (≈ 2.23 µg/mL) | 14 |  |  |  |
| O=C(NO)C1(COc2ccc(C#Cc3ccc(CN4CCOCC4)cc3)cc2)CCC(O)CC1 (stereo not given) | > 200 | > 200 |  |  | 25 (≈ 11.6 µg/mL) | 25 (≈ 11.6 µg/mL) | 82.5 |  |  |  |
